Results reported in article PMC1971528, “Pharmacokinetic studies with the antifolate C2-desamino-C2-methyl-N10-propargyl-2'-trifluoromethyl-5,8-dideazafolic acid (CB3988) in mice and rats using in vivo 19F-NMR spectroscopy” (British Journal of Cancer, 1990).
Like-named read-outs stand apart in the source and are kept apart here.

Tests used:
[1] = mice, ref Newell et al., cited from earlier work
[2] = mice, 1986, cited from earlier work
[3] = design: method as in Alison et al., 1985; Newell et al., 1986; conditions: patients; ref Alison et al., 1985; Newell et al., 1986; cited from earlier work
[4] = qualitative statement, no reference given; cited from earlier work
[5] = In vivo 19F-NMR spectroscopy of CB3988 in mice; conditions: 500 mg kg-1 i.v.
Description: (§1) Br. J. Cancer (1990), 62, 766 772 ? Macmillan Press Ltd., 1990 Pharmacokinetic studies with the antifolate C2-desamino-C2-methyl-N10-propargyl-2'-trifluoromethyl-5,8-dideazafolic acid (CB3988) in mice and rats using in vivo '9F-NMR spectroscopy D.R. Newell', R.J. Maxwell2, G.M.F. Bisset', D.I. Jodrell' & J.R. Griffiths2 'Drug Development Section, Institute of Cancer Research, Sutton, Surrey SM2 SNG; and 2CRC Biomedical NMR Group, St George's Hospital Medical School, Tooting, London SW] 7 ORE, UK. Summary In vivo '9F-NMR spectroscopy has been used to study the pharmacokinetics of the experimental antifolate drug CB3988 (C2-desamino-C2-methyl-N'0-propargyl-2'trifluoromethyl-5,8-dideazafolic acid) in mice and rats. NMR results have been compared to those obtained by HPLC and the effect of the inclusion of the CF3 group evaluated by comparing the pharmacokinetics of CB3988 and ICI 198583 (C2-desamino-C2-methyl- N'?-propargyl-5,8-dideazafolic acid) in rats. In mice, following the administration of CB3988 (500 mg kg-' i.v.), drug could be detected in both the upper and the lower abdomen. […] Signal detected in the lower abdomen reached maximum intensity 60-90 min after treatment. […] When the pharmacokinetics of CB3988 and ICI 198583 were compared the only significant difference was in the alpha phase half life which was 2-fold faster for CB3988. […] This is in contrast to N'?-propargyl-5,8-dideazafolic acid, where delayed excretion is associated with hepatic and renal toxicities. The ability to study CB3988 pharmacokinetics non-invasively by '9F-NMR spectroscopy confirms the utility of the technique and, since '9F-NMR can be applied directly to clinical investigations, it may be possible to obtain similar information in humans. It is now accepted that pharmacokinetics are an important determinant of both the activity and toxicity of anticancer drugs (Newell, 1989). This acceptance has led to the inclusion of pharmacokinetic studies in both the preclinical and early clinical evaluation of the majority of novel antitumour agents with two broad aims in mind. Firstly, the studies may be of direct clinical relevance in determining dose escalation during phase I studies (Collins et al., 1986; EORTC PAM Group, 1987) and secondly the information gained may be of value in interpreting both the toxicity and activity of the com- pound. This latter information can in turn be used to develop either new drugs or drug schedules which maximise the therapeutic potential of the agent. In order to conduct pharmacokinetic studies it is necessary to have a method which can accurately and selectively measure levels of the drug and its metabolites in biological fluids and tissues. Ideally the method should allow studies on drug levels in tumour deposits and in sensitive normal tissues since these are more likely to correlate with activity and toxicity than are levels in plasma or urine. In the preclinical setting such measurements are usually performed using radio- chemicals and either autoradiographic or quantitative tissue distribution studies (Siddik & Newell, 1988). However, in patients ethical and clinical considerations restrict the use of radioactive tracers and routine sampling of tumour or nor- mal tissue is not practicable. […] Using physiological pharmaco- kinetic modelling it is possible to extract some tissue distribu- tion information from such data although there is always considerable uncertainty attached to the results because of interpatient variation. […]

[6] = Quantitative tissue distribution of CB3988 in mice by HPLC; type: in vivo; conditions: 500 mg kg-1 i.v.
Description: Br. J. Cancer (1990), 62, 766 772 ? Macmillan Press Ltd., 1990 Pharmacokinetic studies with the antifolate C2-desamino-C2-methyl-N10-propargyl-2'-trifluoromethyl-5,8-dideazafolic acid (CB3988) in mice and rats using in vivo '9F-NMR spectroscopy D.R. Newell', R.J. Maxwell2, G.M.F. Bisset', D.I. Jodrell' & J.R. Griffiths2 'Drug Development Section, Institute of Cancer Research, Sutton, Surrey SM2 SNG; and 2CRC Biomedical NMR Group, St George's Hospital Medical School, Tooting, London SW] 7 ORE, UK. Summary In vivo '9F-NMR spectroscopy has been used to study the pharmacokinetics of the experimental antifolate drug CB3988 (C2-desamino-C2-methyl-N'0-propargyl-2'trifluoromethyl-5,8-dideazafolic acid) in mice and rats. NMR results have been compared to those obtained by HPLC and the effect of the inclusion of the CF3 group evaluated by comparing the pharmacokinetics of CB3988 and ICI 198583 (C2-desamino-C2-methyl- N'?-propargyl-5,8-dideazafolic acid) in rats. In mice, following the administration of CB3988 (500 mg kg-' i.v.), drug could be detected in both the upper and the lower abdomen. […] Signal detected in the lower abdomen reached maximum intensity 60-90 min after treatment. […] When the pharmacokinetics of CB3988 and ICI 198583 were compared the only significant difference was in the alpha phase half life which was 2-fold faster for CB3988. […] This is in contrast to N'?-propargyl-5,8-dideazafolic acid, where delayed excretion is associated with hepatic and renal toxicities. The ability to study CB3988 pharmacokinetics non-invasively by '9F-NMR spectroscopy confirms the utility of the technique and, since '9F-NMR can be applied directly to clinical investigations, it may be possible to obtain similar information in humans. It is now accepted that pharmacokinetics are an important determinant of both the activity and toxicity of anticancer drugs (Newell, 1989). This acceptance has led to the inclusion of pharmacokinetic studies in both the preclinical and early clinical evaluation of the majority of novel antitumour agents with two broad aims in mind. Firstly, the studies may be of direct clinical relevance in determining dose escalation during phase I studies (Collins et al., 1986; EORTC PAM Group, 1987) and secondly the information gained may be of value in interpreting both the toxicity and activity of the com- pound. This latter information can in turn be used to develop either new drugs or drug schedules which maximise the therapeutic potential of the agent. […] In the preclinical setting such measurements are usually performed using radio- chemicals and either autoradiographic or quantitative tissue distribution studies (Siddik & Newell, 1988). […]

[7] = Acute toxicity in rats; type: in vivo; conditions: 100 mg kg-1 i.v.
Description: (§2) Br. J. Cancer (1990), 62, 766 772 ? Macmillan Press Ltd., 1990 Pharmacokinetic studies with the antifolate C2-desamino-C2-methyl-N10-propargyl-2'-trifluoromethyl-5,8-dideazafolic acid (CB3988) in mice and rats using in vivo '9F-NMR spectroscopy D.R. Newell', R.J. Maxwell2, G.M.F. Bisset', D.I. Jodrell' & J.R. Griffiths2 'Drug Development Section, Institute of Cancer Research, Sutton, Surrey SM2 SNG; and 2CRC Biomedical NMR Group, St George's Hospital Medical School, Tooting, London SW] 7 ORE, UK. Summary In vivo '9F-NMR spectroscopy has been used to study the pharmacokinetics of the experimental antifolate drug CB3988 (C2-desamino-C2-methyl-N'0-propargyl-2'trifluoromethyl-5,8-dideazafolic acid) in mice and rats. NMR results have been compared to those obtained by HPLC and the effect of the inclusion of the CF3 group evaluated by comparing the pharmacokinetics of CB3988 and ICI 198583 (C2-desamino-C2-methyl- N'?-propargyl-5,8-dideazafolic acid) in rats. In mice, following the administration of CB3988 (500 mg kg-' i.v.), drug could be detected in both the upper and the lower abdomen. […] Signal detected in the lower abdomen reached maximum intensity 60-90 min after treatment. […] In the preclinical setting such measurements are usually performed using radio- chemicals and either autoradiographic or quantitative tissue distribution studies (Siddik & Newell, 1988). […]

[8] = Plasma pharmacokinetics and biliary/urinary excretion in rats by HPLC; type: in vivo; conditions: 100 mg kg-1 i.v., CB3988 vs ICI 198583
Description: as §2

[9] = Acute toxicity in mice; type: in vivo; conditions: 500 mg kg-1 i.v.
Description: as §2

[10] = system: thymidylate synthase; design: method as in A.L. Jackman, unpublished results; conditions: ref A.L. Jackman, unpublished results; cited from earlier work
[11] = In vivo 19F-NMR spectroscopy of CB3988 in rats; conditions: 100 mg kg-1 i.v.
Description: as §1

[12] = cited from earlier work
[13] = design: method as in Newell et al., 1988; conditions: experimental systems; ref Newell et al., 1988; cited from earlier work
[14] = upper abdomen, cannulated and bile duct-intact

C#CCN(Cc1ccc2nc(N)[nH]c(=O)c2c1)c1ccc(C(=O)N[C@@H](CCC(=O)O)C(=O)O)cc1 [CB3717, N10-propargyl-5,8-dideazafolic acid]
urinary excretion and persistence in kidney [1]; 1986: delayed urinary excretion and drug still present in the kidney weeks after administration
nephrotoxicity ([2]; ref Alison et al., 1985, Newell et al.): nephrotoxic
hepatotoxicity ([2]; ref Newell et al.): hepatotoxic
nephrotoxicity [3]: nephrotoxic
aqueous solubility [4]: poor solubility

C#CCN(Cc1ccc2nc(C)[nH]c(=O)c2c1)c1ccc(C(=O)N[C@@H](CCC(=O)O)C(=O)O)c(C(F)(F)F)c1 [CB3988, C2-desamino-C2-methyl-N10-propargyl-2'trifluoromethyl-5,8-dideazafolic acid]
time by which urinary excretion is essentially complete ([5]; NMR signal in bladder): ≤ 1 h
time at which NMR signal in the lower abdomen reached maximum intensity ([5]; lower abdomen): 60 to 90 min
metabolites (additional peaks) in NMR spectrum ([5]; upper abdomen): No clear evidence of the presence of additional peaks
time at which NMR signal from the upper abdomen reached maximum intensity ([5]; upper abdomen): 10 to 40 min
half-life ([5]; mouse, upper abdomen (in vivo NMR signal), iv, analysis period 40-120 min, mean ± s.d. of three mice, read-out: half life for the decline of NMR signal from the upper abdomen (overall mean)): 28 min
CB3988 concentration in bile and urine, molar [6]: 40 to 60 mM
CB3988 concentration in liver and small intestines ([6]; 30 and 60 min): > 1 mg g-1 wet weight
CB3988 concentration in bile and urine (gall bladder and urinary bladder) ([6]; 30 and 60 min, HPLC): 20 to 30 mg/mL
Conc. large intestine ([6]; 60 min, large intestine (ND)): < 0.02 mg g-1 wet weight
acute toxicity [7]: no acute toxicity
alpha phase half life, fold faster than ICI 198583 [8]: 2 fold
acute toxicity [9]: no acute toxicity
reduction of inhibitory activity towards thymidylate synthase in comparison to ICI 198583 [10]: 7 fold
metabolites in NMR spectra ([11]; intact and cannulated bile ducts): no metabolites being detected
time by which NMR signal reached the limit of detection ([11]; upper abdomen, bile duct cannulated): 15 to 20 min
time after bolus dose at which NMR signal was detected [11, 14]: up to 2 min
time by which NMR signal intensity reached a maximum value [11, 14]: ≤ 10 min
half-life ([11]; rat, iv, upper abdomen, three bile duct cannulated rats, read-out: half-life for the decline in the NMR signal, individual rats): 5.6 min
reduction of cytotoxicity in comparison to ICI 198583 ([12]; ref A.L. Jackman, unpublished results): 14 fold

C#CCN(Cc1ccc2nc(C)[nH]c(=O)c2c1)c1ccc(C(=O)N[C@@H](CCC(=O)O)C(=O)O)cc1 [ICI 198583, C2-desamino-C2-methyl-N10-propargyl-5,8-dideazafolic acid]
acute liver and kidney toxicity [13]: devoid of acute liver and kidney toxicity
retention in liver and kidney [1]; 1988: not retained in either the liver or the kidney
aqueous solubility [4]: greatly enhanced aqueous solubility compared to CB3717
potency in cytotoxicity studies relative to CB3717 ([12]; ref Hughes et al., 1988, Jackman et al.): markedly more potent than CB3717
